From patent US10112945B2, “Fused quinoline compunds as PI3K, mTOR inhibitors” (ADVENCHEN PHARMACEUTICALS, NANJING LTD., priority 2014, dated 2018)

What was measured:
mTor = target: T1, mTor (Homo sapiens, UniProt P42345); experiment: In vitro kinase inhibition, mTor (Millipore/Merck kinases panel screening); type: biochemical; conditions: compound at 0.03 μM; scaffold drawing 7 series
T1 construct: purchased Millipore/Merck KGA
Description: (§1) In vitro kinase inhibition activities included Pi3k and mTor activities can be tested with Millipore/Merck KGA of Europe in their kinases panel screening. Animal antitumor activity testing can be conducted by various cancer xenograft models for a compound of formula I.
(§2) The following compounds or a pharmaceutically acceptable salt thereof, but not limited, can also be prepared similarly according to the methods described in Scheme I-Scheme II. They are also tested for the inhibitions on mTor or pi3k kinases, or tumor cell lines.

pi3K = experiment: In vitro kinase inhibition, pi3K (Millipore/Merck kinases panel screening); type: biochemical; conditions: compound at 0.03 μM; scaffold drawing 7 series
Description: as §1, §2

CN(C)CC(=O)Nc1ccc(-c2ccc3ncc4c(c3c2)n(-c2ccc(Cl)c(C(F)(F)F)c2)c2nncn42)cn1 [N-(5-{16-[4-chloro-3-(trifluoromethyl)phenyl]-8,11,13,14,16-pentaazatetracyclo[8.6.0.0^2,7.0^11,15]-hexadeca-1(10),2,4,6,8,12,14-heptaen-4-yl}pyridin-2-yl)-2-(dimethylamino)acetamide] was tested. Which activity at 0.03 µM (mTor) did it give?
Its activity at 0.03 µM is 15%.

FC(F)(F)c1cc(-n2c3c4cc(-c5ccc(NCCN6CCOCC6)nc5)ccc4ncc3n3cnnc23)ccc1Cl [5-{16-[4-chloro-3-(trifluoromethyl)phenyl]-8,11,13,14,16-pentaazatetracyclo[8.6.0.0^2,7.0^11,15]-hexadeca-1(10),2,4,6,8,12,14-heptaen-4-yl}-N-[2-(morpholin-4-yl)ethyl]pyridin-2-amine] was tested. Which “pi3K % activity @0.03 μM” value (pi3K) did it give?
Its value is 93%.

And the activity at 0.03 µM (mTor)?
Its activity at 0.03 µM is 20%.

What does the source list for FC(F)(F)c1cc(-n2c3c4cc(-c5ccc(NCCN6CCCC6)nc5)ccc4ncc3n3cnnc23)ccc1Cl [5-{16-[4-chloro-3-(trifluoromethyl)phenyl]-8,11,13,14,16-pentaazatetracyclo[8.6.0.0^2,7.0^11,15]-hexadeca-1(10),2,4,6,8,12,14-heptaen-4-yl}-N-[2-(pyrrolidin-1-yl)ethyl]pyridin-2-amine]?
pi3K % activity @0.03 μM (pi3K): 98%; activity at 0.03 µM (mTor): 15%

Which results are given for “2-[(5-{16-[3-(trifluoromethyl)phenyl]-8,11,13,14,16-pentaazatetracyclo-[8.6.0.0^2,7.0^11,15]-hexadeca-1(10),2,4,6,8,12,14-heptaen-4-yl}pyridin-2-yl-amino]ethan-1-ol”?
pi3K % activity @0.03 μM (pi3K): 96%; mTor % activity @0.03 μM (mTor): 8%

With O=C(CN1CCOCC1)Nc1ccc(-c2ccc3ncc4c(c3c2)n(-c2ccc(Cl)c(C(F)(F)F)c2)c2nncn42)cn1 [N-(5-{16-[4-chloro-3-(trifluoromethyl)phenyl]-8,11,13,14,16-pentaazatetracyclo[8.6.0.0^2,7.0^11,15]-hexadeca-1(10),2,4,6,8,12,14-heptaen-4-yl}pyridin-2-yl)-2-(morpholin-4-yl)acetamide] as the compound, how does the “pi3K % activity @0.03 μM” value (pi3K) read?
The value was 82%.

And the activity at 0.03 µM (mTor)?
Its activity at 0.03 µM is 17%.

FC(F)(F)c1cccc(-n2c3c4cc(-c5cccnc5)ccc4ncc3n3cnnc23)c1 [3-pyridine, H, H, 16-(3-(trifluoromethyl)phenyl)-4-(pyridin-3-yl)-8,11,13,14,16-pentaazatetracyclo-[8.6.0.0^2,7.0^11,15]hexadeca-1(10),2,4,6,8,12,14-heptaene] was tested. Which “pi3K % activity @0.03 μM” value (pi3K) did it give?
The value was 70%.

And the activity at 0.03 µM (mTor)?
The activity at 0.03 µM was 0%.

Which activity at 0.03 µM (mTor) does the source give for Fc1ccc(C(F)(F)F)cc1-n1c2c3cc(-c4cnc5ccccc5c4)ccc3ncc2n2cnnc12 [3-quinoline, 6-F, H, 16-[2-fluoro-5-(trifluoromethyl)phenyl]-4-(quinolin-3yl)-8,11,13,14,16-pentaazatetracyclo-[8.6.0.0^2,7.0^11,15]hexadeca-1(10),2,4,6,8,12,14-heptaene] here?
Its activity at 0.03 µM is 0%.

FC(F)(F)c1cccc(-n2c3c4cc(-c5ccc(NCCN6CCCC6)nc5)ccc4ncc3n3cnnc23)c1 [N-[2-(pyrrolidin-1-yl)ethyl]-5-{16-[3-(trifluoromethyl)phenyl]-8,11,13,14,16-pentaazatetracyclo-[8.6.0.0^2,7.0^11,15]-hexadeca-1(10),2,4,6,8,12,14-heptaen-4-yl}pyridin-2-amine] was tested. Which “pi3K % activity @0.03 μM” value (pi3K) did it give?
The value was 101%.

And the activity at 0.03 µM (mTor)?
Its activity at 0.03 µM is 4%.

Which “mTor % activity @0.03 μM” value (mTor) does the source give for Fc1cccc(-c2ccc3ncc4c(c3c2)n(-c2ccc(Cl)c(C(F)(F)F)c2)c2nncn42)c1 [3-Flurophenyl, 4-Cl, H] here?
The value was 46%.

How did the activity at 0.03 µM (mTor) turn out when O=C1CCN(CC(=O)Nc2ccc(-c3ccc4ncc5c(c4c3)n(-c3ccc(Cl)c(C(F)(F)F)c3)c3nncn53)cn2)CC1 [N-(5-{16-[4-chloro-3-(trifluoromethyl)phenyl]-8,11,13,14,16-pentaazatetracyclo[8.6.0.0^2,7.0^11,15]-hexadeca-1(10),2,4,6,8,12,14-heptaen-4-yl}pyridin-2-yl)-2-(4-oxopiperidin-1-yl)acetamide] was run?
Its activity at 0.03 µM is 57%.

Which results are given for “2-(4-methylpiperazin-1-yl)-N-(5-{16-[3-(trifluoromethyl)phenyl]-8,11,13,14,16-pentaazatetra-cyclo[8.6.0.0^2,7.0^11,15]hexadeca-1(10),2,4,6,8,12,14-heptaen-4-yl}pyridin-2-yl)acetamide”?
pi3K % activity @0.03 μM (pi3K): 97%; mTor % activity @0.03 μM (mTor): 46%

Which activity at 0.03 µM (mTor) does the source give for CC(=O)Nc1ccc(-c2ccc3ncc4c(c3c2)n(-c2ccc(Cl)c(C(F)(F)F)c2)c2nncn42)cn1 [N-(5-pyridin-2-yl)acetamide, 4-Cl, H, N-(5-{16-[4-chloro-3-(trifluoromethyl)phenyl]-8,11,13,14,16-pentaazatetracyclo-[8.6.0.0^2,7.0^11,15]hexadeca-1(10),2,4,6,8,12,14-heptaen-4-yl}pyridin-2-yl)acetamide] here?
The activity at 0.03 µM was 5%.

For CN(C)CC(=O)Nc1ccc(-c2ccc3ncc4c(c3c2)n(-c2cccc(C(F)(F)F)c2)c2nncn42)cn1 [2-(dimethylamino)-N-(5-{16-[3-(trifluoromethyl)phenyl]-8,11,13,14,16-pentaazatetracyclo-[8.6.0.0^2,7.0^11,15]hexadeca-1(10),2,4,6,8,12,14-heptaen-4-yl}pyridin-2-yl)acetamide], which “pi3K % activity @0.03 μM” value (pi3K) is on record?
The value was 89%.

What about the activity at 0.03 µM (mTor) of the same compound?
The activity at 0.03 µM was 7%.

For CN1CCN(CC(=O)Nc2ccc(-c3ccc4ncc5c(c4c3)n(-c3ccc(Cl)c(C(F)(F)F)c3)c3nncn53)cn2)CC1 [N-(5-{16-[4-chloro-3-(trifluoromethyl)phenyl]-8,11,13,14,16-pentaazatetracyclo[8.6.0.0^2,7.0^11,15]-hexadeca-1(10),2,4,6,8,12,14-heptaen-4-yl}pyridin-2-yl)-2-(4-methylpiperazin-1-yl)acetamide], which “pi3K % activity @0.03 μM” value (pi3K) is on record?
Its value is 74%.

And the activity at 0.03 µM (mTor)?
The activity at 0.03 µM was -4%.

Which results are given for FC(F)(F)c1cccc(-n2c3c4cc(-c5cnc6ccccc6c5)ccc4ncc3n3cnnc23)c1 [3-quinoline, H, H, 4-(quinolin-3yl)-16-[3-(trifluoromethyl)phenyl]-8,11,13,14,16-pentaazatetracyclo-[8.6.0.0^2,7.0^11,15]hexadeca-1(10),2,4,6,8,12,14-heptaene]?
pi3K % activity @0.03 μM (pi3K): 68%; activity at 0.03 µM (mTor): -5%

With Fc1cc(-n2c3c4cc(-c5cnc6ccccc6c5)ccc4ncc3n3cnnc23)cc(C(F)(F)F)c1 [3-quinoline, 5-F, H, 16-[3-fluoro-5-(trifluoromethyl)phenyl]-4-(quinolin-3yl)-8,11,13,14,16-pentaazatetracyclo-[8.6.0.0^2,7.0^11,15]hexadeca-1(10),2,4,6,8,12,14-heptaene] as the compound, how does the activity at 0.03 µM (mTor) read?
Its activity at 0.03 µM is -8%.

With O=C(CN1CCC(O)CC1)Nc1ccc(-c2ccc3ncc4c(c3c2)n(-c2ccc(Cl)c(C(F)(F)F)c2)c2nncn42)cn1 [N-(5-{16-[4-chloro-3-(trifluoromethyl)phenyl]-8,11,13,14,16-pentaazatetracyclo[8.6.0.0^2,7.0^11,15]-hexadeca-1(10),2,4,6,8,12,14-heptaen-4-yl}pyridin-2-yl)-2-(4-hydroxypiperidin-1-yl)acetamide] as the compound, how does the activity at 0.03 µM (mTor) read?
The activity at 0.03 µM was 14%.

Fc1ccccc1-c1ccc2ncc3c(c2c1)n(-c1ccc(Cl)c(C(F)(F)F)c1)c1nncn31 [2-Flurophenyl, 4-Cl, H, 16-[4-chloro-3-(trifluoromethyl)phenyl]-4-(2-fluorophenyl)-8,11,13,14,16-pentaazatetracyclo-[8.6.0.0^2,7.0^11,15]hexadeca-1(10),2,4,6,8,12,14-heptaene] was tested. Which activity at 0.03 µM (mTor) did it give?
Its activity at 0.03 µM is 55%.

With FC(F)(F)c1cc(-n2c3c4cc(-c5cccnc5)ccc4ncc3n3cnnc23)ccc1Cl [3-pyridine, 4-Cl, H, 16-[4-chloro-3-(trifluoromethyl)phenyl]-4-(pyridin-3-yl)-8,11,13,14,16-pentaazatetracyclo-[8.6.0.0^2,7.0^11,15]hexadeca-1(10),2,4,6,8,12,14-heptaene] as the compound, how does the “pi3K % activity @0.03 μM” value (pi3K) read?
Its value is 77%.

And the activity at 0.03 µM (mTor)?
The activity at 0.03 µM was 19%.

For OCCNc1ccc(-c2ccc3ncc4c(c3c2)n(-c2ccc(Cl)c(C(F)(F)F)c2)c2nncn42)cn1 [2-[(5-{16-[4-chloro-3-(trifluoromethyl)phenyl]-8,11,13,14,16-pentaazatetracyclo-[8.6.0.0^2,7.0^11,15]-hexadeca-1(10),2,4,6,8,12,14-heptaen-4-yl}pyridin-2-yl)amino]ethanol], which “pi3K % activity @0.03 μM” value (pi3K) is on record?
Its value is 82%.

What about the activity at 0.03 µM (mTor) of the same compound?
The activity at 0.03 µM was -4%.

What does the source list for O=C(CN1CCCC1)Nc1ccc(-c2ccc3ncc4c(c3c2)n(-c2ccc(Cl)c(C(F)(F)F)c2)c2nncn42)cn1 [N-(5-{16-[4-chloro-3-(trifluoromethyl)phenyl]-8,11,13,14,16-pentaazatetracyclo[8.6.0.0^2,7.0^11,15]-hexadeca-1(10),2,4,6,8,12,14-heptaen-4-yl}pyridin-2-yl)-2-(pyrrolidin-1-yl)acetamide]?
pi3K % activity @0.03 μM (pi3K): 82%; activity at 0.03 µM (mTor): 4%

Which “mTor % activity @0.03 μM” value (mTor) does the source give for “12-ethyl-16-[4-fluoro-3 -(trifluoromethyl)phenyl]-4-8,11,13,14,16-pentaazatetracyclo[8.6.0.0^2,7.0^11,15]hexadeca-1(10),2,4,6,8,12,14-heptaene [3-pyridine, 4-F, CH2CH3]” here?
The value was 73%.

How did the “mTor % activity @0.03 μM” value (mTor) turn out when Fc1ccc(-c2ccc3ncc4c(c3c2)n(-c2ccc(Cl)c(C(F)(F)F)c2)c2nncn42)cc1F [3,4-Diflurophenyl, 4-Cl, H, 16-[4-chloro-3-(trifluoromethyl)phenyl]-4-(3,4-difluorophenyl)-8,11,13,14,16-pentaazatetra-cyclo-[8.6.0.0^2,7.0^11,15]hexadeca-1(10),2,4,6,8,12,14-heptaene] was run?
The value was 31%.

With FC(F)(F)c1cc(-n2c3c4cc(-c5cnc6ccccc6c5)ccc4ncc3n3cnnc23)cc(C(F)(F)F)c1 [3-quinoline, 5-CF3, H, 16-[3,5-(trifluoromethyl)phenyl]-4-(quinolin-3yl)-8,11,13,14,16-pentaazatetracyclo-[8.6.0.0^2,7.0^11,15]hexadeca-1(10),2,4,6,8,12,14-heptaene] as the compound, how does the “mTor % activity @0.03 μM” value (mTor) read?
The value was 0%.
